Measurements published in patent US20250339408A1, “TREATMENT AND PREVENTION OF BASAL CELL CARCINOMA WITH TOPICAL COMPOSITION COMPRISING PATIDEGIB” (Sol-Gel Technologies Ltd., priority 2023, published 2025).

Test system: basal cell carcinoma (BCC) lesions on the face
Assay: Randomized, double-blind, vehicle-controlled study of Patidegib Topical Gel, 2% in Gorlin syndrome participants with PTCH1 mutation (Example 2)
Type: in vivo, human
Source text: The term “nSEB” refers to BCCs with a longest diameter of ≥5 mm that: • a. were not surgically eligible BCCs (SEBs) at baseline; • b. have grown by ≥2 mm in longest diameter from baseline; and • c. have been verified histologically.
The term “SEB” refers to surgically eligible BCCs with a longest diameter of ≥5 mm.
The term “resolved SEB lesions” refers to BCCs lesions which no longer requires a surgical removal treatment. In another embodiment the term “resolved SEB lesions” refers to BCCs lesions with a diameter <5 mm or the BCC lesions are completely disappeared.
A randomized, double-blind, stratified, vehicle-controlled study was done, measuring the efficacy and safety of Patidegib Topical Gel, 2%, applied topically twice daily to the face of adult participants with Gorlin syndrome. The Participants were required to apply the investigational product for 12 months. The primary endpoint is a comparison between the two treatment—Patidegib Topical Gel, 2%, versus Vehicle, resulted the of the number of new BCCs that develop over the 12 month period.
Participants will be randomized to receive Patidegib Topical Gel, 2%. The Patidegib Topical Gel, 2% will be dispensed to participants at each study visit and applied topically twice daily to the face.
Participants will be randomized to receive Vehicle. The Patidegib Topical Gel, Vehicle will be dispensed to participants at each study visit and applied topically twice daily to the face.
• 1. The participant must be age at least 18 years of age at the Screening Visit. • 2. The participant must provide written informed consent prior to any study procedures. • 3. The participant must meet diagnostic criteria for the basal cell nevus (Gorlin) syndrome including PTCH1 gene mutation, or at least 6 histologically confirmed facial BCC lesions at Baseline and PTCH1 gene mutation. • 4. The participant is willing to have blood collected to measure circulating drug levels. • 5. The participant is willing to abstain from application of a non-study topical medication (prescription or over the counter) to facial skin for the duration of the trial except as prescribed by the Investigator. Moisturizers and emollients are allowed. Participant will be encouraged to use their preferred sunscreen with a sun protector factor (SPF) of at least 30 daily on all exposed skin sites. • 6. If the participant is a woman of childbearing potential (WOCBP), they must be willing to use complete abstinence from sexual intercourse and/or they and their partner must be willing to use at least 2 highly-effective forms of birth control starting prior to Baseline, through the duration of the study, and for 12 months after last application of IP. • 7. If the participant is a male with a female sex partner who is a WOCBP, the participant must be willing to use condoms, even after a vasectomy, starting prior to Baseline, through the duration of the study, and for at least 8 months after the last application of IP. • 8. The participant is willing for all facial BCCs to be evaluated and treatment recommendations made only by the Investigator. • 9. The participant is willing to forego treatment of facial BCCs with anything other than the study IP except when the Investigator believes that delay of treatment of a facial BCC potentially might compromise the health of the subject. During the trial the only allowed form of treatment is surgical. Non-facial BCCs may be removed at the discretion of the Investigator or Primary Skin Care Physician (PSCP).
• 1. The subject has previously participated in a clinical trial evaluating patidegib topical gel. • 2. The participant has used topical treatment to the face or systemic therapies that might interfere with the evaluation of the study IP. Among these are use of the following: • a. 5-fluorouracil, imiquimod, diclofenac, or Ingenol mebutate (except as topical treatment to discrete non-facial BCCs) systemically or topically to the skin within the 2 months prior to the Screening Visit. • b. […]

[1] = PTCH1 mutation, baseline total facial BCC lesions at least 6, gel 2% twice daily to face, month 3
[2] = PTCH1 mutation, baseline total facial BCC lesions at least 6, gel 2% twice daily to face, month 6
[3] = PTCH1 mutation, baseline total facial BCC lesions at least 6, gel 2% twice daily to face, month 9
[4] = PTCH1 mutation, baseline total facial BCC lesions at least 6, gel 2% twice daily to face, month 12
[5] = PTCH1 mutation, baseline total facial BCC lesions at least 8, gel 2% twice daily to face, month 3
[6] = PTCH1 mutation, baseline total facial BCC lesions at least 8, gel 2% twice daily to face, month 6
[7] = PTCH1 mutation, baseline total facial BCC lesions at least 8, gel 2% twice daily to face, month 9
[8] = PTCH1 mutation, baseline total facial BCC lesions at least 8, gel 2% twice daily to face, month 12
[9] = PTCH1 mutation, baseline total facial BCC lesions at least 10, gel 2% twice daily to face, month 3
[10] = PTCH1 mutation, baseline total facial BCC lesions at least 10, gel 2% twice daily to face, month 6
[11] = PTCH1 mutation, baseline total facial BCC lesions at least 10, gel 2% twice daily to face, month 9
[12] = PTCH1 mutation, baseline total facial BCC lesions at least 10, gel 2% twice daily to face, month 12
[13] = PTCH1 mutation, gel 2% twice daily to face
[14] = PTCH1 mutation, gel 2% twice daily to face, month 3
[15] = PTCH1 mutation, gel 2% twice daily to face, month 6
[16] = PTCH1 mutation, gel 2% twice daily to face, month 9
[17] = PTCH1 mutation, gel 2% twice daily to face, month 12
[18] = per subject, PTCH1 mutation, by month 12
[19] = per subject, more than 6 BCC lesions at baseline, Baseline to month 12

## CC1=C2C[C@H]3[C@@H](CC[C@@H]4C[C@H](NS(C)(=O)=O)CC[C@@]43C)[C@@H]2CC[C@@]2(C1)O[C@@H]1C[C@H](C)CN[C@H]1[C@H]2C [Patidegib]
Gorlin syndrome with genetic mutation PTCH1
  Overall efficacy in treating or preventing BCC lesions (in words): effective in treating or preventing BCC lesions
PTCH1 mutation, baseline total BCC facial lesions at least 6, gel 2% twice daily to face, month 3
  Number of qualifying nSEBs, observed, Mean: 0.28
PTCH1 mutation, baseline total BCC facial lesions at least 6, gel 2% twice daily to face, month 6
  Number of qualifying nSEBs, observed, Mean: 0.42
PTCH1 mutation, baseline total BCC facial lesions at least 6, gel 2% twice daily to face, month 9
  Number of qualifying nSEBs, observed, Mean: 0.83
PTCH1 mutation, baseline total BCC facial lesions at least 6, gel 2% twice daily to face, month 12
  Number of qualifying nSEBs, observed, Mean: 0.47
[1]
  Number of new BCCs excluding no longer suspicious BCCs, observed, Mean: 0.80
  Proportion of SEBs clinically resolved, observed, Mean: 6.61
[2]
  Number of new BCCs excluding no longer suspicious BCCs, observed, Mean: 1.68
  Proportion of SEBs clinically resolved, observed, Mean: 3.11
[3]
  Number of new BCCs excluding no longer suspicious BCCs, observed, Mean: 2.49
  Proportion of SEBs clinically resolved, observed, Mean: 10.22
[4]
  Number of new BCCs excluding no longer suspicious BCCs, observed, Mean: 2.78
  Proportion of SEBs clinically resolved, observed, Mean: 18.79
[5]
  Number of new BCCs excluding no longer suspicious BCCs, observed, Mean: 0.94
  Number of qualifying nSEBs, observed, Mean: 0.31
  Proportion of SEBs clinically resolved, observed, Mean: 5.98
[6]
  Number of new BCCs excluding no longer suspicious BCCs, observed, Mean: 1.96
  Number of qualifying nSEBs, observed, Mean: 0.52
  Proportion of SEBs clinically resolved, observed, Mean: 1.30
[7]
  Number of new BCCs excluding no longer suspicious BCCs, observed, Mean: 2.71
  Number of qualifying nSEBs, observed, Mean: 0.96
  Proportion of SEBs clinically resolved, observed, Mean: 8.73
[8]
  Number of new BCCs excluding no longer suspicious BCCs, observed, Mean: 2.96
  Number of qualifying nSEBs, observed, Mean: 0.52
  Proportion of SEBs clinically resolved, observed, Mean: 12.84
[9]
  Number of new BCCs excluding no longer suspicious BCCs, observed, Mean: 1.00
  Number of qualifying nSEBs, observed, Mean: 0.41
  Proportion of SEBs clinically resolved, observed, Mean: 8.50
[10]
  Number of new BCCs excluding no longer suspicious BCCs, observed, Mean: 1.93
  Number of qualifying nSEBs, observed, Mean: 0.64
  Proportion of SEBs clinically resolved, observed, Mean: 2.05
[11]
  Number of new BCCs excluding no longer suspicious BCCs, observed, Mean: 2.56
  Number of qualifying nSEBs, observed, Mean: 1.00
  Proportion of SEBs clinically resolved, observed, Mean: 13.39
[12]
  Number of new BCCs excluding no longer suspicious BCCs, observed, Mean: 2.88
  Number of qualifying nSEBs, observed, Mean: 0.56
  Proportion of SEBs clinically resolved, observed, Mean: 16.89
[13]
  LS Mean for new BCCs per year (Std Err): 2.83
  Predicted new BCCs per year using observed covariates (95% CI): 3.09
[14]
  Number of new BCCs excluding no longer suspicious BCCs, observed, Mean: 0.69
  Number of qualifying nSEBs, observed, Mean: 0.21
  Proportion of SEBs clinically resolved, observed, Mean: 5.42
[15]
  Number of new BCCs excluding no longer suspicious BCCs, observed, Mean: 1.59
  Number of qualifying nSEBs, observed, Mean: 0.38
  Proportion of SEBs clinically resolved, observed, Mean: 2.76
[16]
  Number of new BCCs excluding no longer suspicious BCCs, observed, Mean: 2.17
  Number of qualifying nSEBs, observed, Mean: 0.70
  Proportion of SEBs clinically resolved, observed, Mean: 8.11
[17]
  Number of new BCCs excluding no longer suspicious BCCs, observed, Mean: 2.61
  Number of qualifying nSEBs, observed, Mean: 0.50
  Proportion of SEBs clinically resolved, observed, Mean: 14.68
All subjects of the arm, PTCH1 mutation, by month 12
  Total new BCCs: 114
All subjects of the arm, more than 6 BCC lesions at baseline
  Total BCCs surgeries from Baseline to month 12: 14
New BCCs per year, PTCH1 mutation
  Rate-ratio: Patidegib/Vehicle (Std Err): 0.91
[18]
  Number of new BCCs by Month 12 - Max: 8
  Number of new BCCs by Month 12 - Median: 2.0
  Number of new BCCs by Month 12 - Min: 0
  Number of new BCCs by Month 12 - Q1: 1.0
  Number of new BCCs by Month 12 - Q3: 5.0
Per subject, PTCH1 mutation, gel 2% twice daily to face, by month 12
  Number of new BCCs by Month 12 - Mean (SD): 3.08
[19]
  Number of BCCs surgeries - Max: 5
  Number of BCCs surgeries - Median: 0.0
  Number of BCCs surgeries - Min: 0
  Number of BCCs surgeries - Q1: 0
  Number of BCCs surgeries - Q3: 1
Per subject, more than 6 BCC lesions at baseline, Baseline to month 12, gel 2% twice daily to face
  Number of BCCs surgeries - Mean (SD): 0.6 (1.47)
